These results are taken from patent US20210395312A1, “QUANTUM CONFINED PEPTIDE ASSEMBLIES AND USES THEREOF” (Ramot at Tel-Aviv University Ltd., priority 2019, published 2021).

Assay type in all cases: physicochemical
Data set [1] can be described thus: Fluorescence photobleaching. The settings on record: continuous irradiation for 600 seconds. On the procedure: The fluorescence emission data was collected at 80 points per second for 10 minutes. The excitation and emission slit widths were each set at 5 nm. At least three measurements were performed and averaged for accuracy.
A short description of data set [2]: Fluorescence photostability. On the procedure: Fluorescence photostability: Fluorescence emission spectra were measured at different time points (1 day, 7 days and 14 days). The excitation and emission slit widths were each set at 5 nm. Three measurements were performed and averaged for accuracy.
Data set [3] is described as follows: Fluorescent decay measurement (lifetime). The settings on record: MeOH; for Lifetime (τ): at maximal excitation and emission. On the procedure:
Fluorescent decay measurement (lifetime): 600 μL sample solution was pipetted into a 1.0 cm path-length quartz cuvette, and the spectrum was collected using a FluoroMax-4 Spectrofluorometer (Horiba Jobin Yvon, Kyoto, Japan) equipped with a NanoLED laser excitation source at ambient temperature. The wavelength was set as the maximum excitation and emission of the samples, and a LUDOX sample (silica beads, 2 μm) was used as the prompt. The lifetime was determined by fitting the fluorescent decay data from the DAS6 Analysis software (Horiba Jobin Yvon, Kyoto, Japan). Three measurements were performed and averaged for accuracy.

Data set [4] in a line: Fluorescence characterization (excitation/emission) of self-assemblies. To be noted: for fluorescent emission / Emission (λEm) / Excitation (λEx): MeOH; for fluorescent emission: excited at 370 nm; for Emission (λEm): maximal emission; for Excitation (λEx): maximal excitation. On the procedure: UV-Visible fluorescence characterization: 600 μL sample solution was pipetted into a 1.0 cm path-length quartz cuvette, and the spectrum was collected using a FluoroMax-4 Spectrofluorometer (Horiba Jobin Yvon, Kyoto, Japan) at ambient temperature. For molecular fluorescence of some experiments, the emission wavelength was set at 350 nm with a slit of 3 nm, and the excitation wavelength was set at 200-330 nm with a slit of 3 nm. For self-assembly fluorescence, the excitation wavelength was set at 370 nm with a slit of 3 nm, and the emission wavelength was set at 380-700 nm with a slit of 3 nm. For excitation-dependent maximal emission evolution experiment, the excitation wavelengths were set at 300-450 nm with a slit of 3 nm, and the emission wavelengths were set at 380-600 nm with a slit of 3 nm. According to the samples, anhydrous MeOH or MeOH solution of ZnCl2 (CuCl2) was used as background and subtracted. At least five measurements were performed and averaged for accuracy. Emission and excitation wavelengths, slit dimensions and background solutions were adjusted per the measured sample and are as indicated below. […]
(§1) Fluorescence spectroscopy and quantum yield (QY) measurement: 600 μL sample solution was pipetted into a 1.0 cm path-length quartz cuvette, and the spectrum was collected using a FluoroMax-4 Spectrofluorometer (Horiba Jobin Yvon, Kyoto, Japan) at ambient temperature. The excitation and emission wavelengths were set at 300-500 nm and 400-650 nm, respectively, with a slit of 2 nm. Absolute fluorescence QY measurements were performed using Quanta-Phi integrating sphere connected to Fluoromex-4.

The nature of data set [5]: Morphology and size of self-assemblies (AFM, DLS, TEM). The settings on record: self-assemblies in MeOH. On the procedure:
Dynamic light scattering (DLS): 850 μL of the sample solution was introduced into a DTS1070 folded capillary cell (Malvern, Worcestershire, U.K.), and the size was measured using a Zetasizer Nano ZS analyzer (Malvern Instruments, Malvern, UK) at 25.0° C. and a backscatter detector (173°). Three measurements were performed and averaged for accuracy.
Atomic force microscopy (AFM): 4 μL of sample solution was dropped onto a freshly cleaved mica surface and let it dry. The mica was then rinsed with water and purged dried gently with nitrogen. A topographic image was recorded under a NanoWizard 3 BioScience AFM (JPK, Berlin, Germany) in the tapping mode at ambient temperature, with 512×512 pixel resolution and a scanning speed of 1.0 Hz.
Transmission electron microscopy (TEM): A carbon-coated copper grid was placed on a 10 μL cyclo-dipeptide droplet for 1 minute and then blotted. Next, the washed grid was placed on a 10 μL droplet containing 4% (w/v) uranyl acetate solution for 1 min and then blotted. Samples were examined using Tecnai G2 Spirit TEM (FEI) at 80 kV.
Atomic force microscopy (AFM): 5 μL of sample solution was dropped onto a freshly cleaved mica surface and dried by N2 purge (99.99%). The mica was then rinsed with water and gently purge dried with nitrogen. A topographic image was recorded under a Dimension icon AFM (Bruker) in the tapping mode at ambient temperature, with a 512×512-pixel resolution and a scanning speed of 1.0 Hz. Nanoscope Analysis software was used for data collection and analysis.
For cyclo-dipeptide-Zn structures, aliquots (10 μL) of cyclo-dipeptide-Zn were added into a glow discharge copper grid (400 mesh) coated with a thin carbon film for 2 minutes. Excess solution was then removed, and the grid was washed three times with deionized water. TEM images were viewed using a FEI Tecnai F20 electron microscope operating at 80 kV.

Data set [6] can be described thus: Quantum yield (QY) measurement. To be noted: MeOH; excitation set at 350 nm if maximal excitation less than 350 nm. On the procedure: Quantum yield (QY) measurement: 5 mL sample solution was pipetted into a 1.0 cm path-length quartz cuvette with a tube (Hellma, Müllheim, Germany), and the absolute quantum yield was measured on an absolute PL quantum yield spectrometer C11347 (Hamamatsu Photonics, Shizuoka, Japan) at ambient temperature. The relevant blanks, namely anhydrous MeOH, MeOH solutions of ZnCl2 (CuCl2), or DMSO solution of ZnCl2, were used as background and subtracted. At least five measurements were performed and averaged for accuracy.
as §1

[7] abbreviates: emission band 425, excitation 340 nm.
Where [8] appears, read: emission band 520, excitation 420 nm.
Setting [9] is: emission band 380 (strong), excitation 320 nm.
Where [10] appears, read: emission band 465 (weak), excitation 370 nm.

Where “and” joins values, the source holds several entries; their conditions need not be identical. Identical values can stand only once.

`CC1(C)C(/C=C/C=C/C=C/C=C2\N(CCCCS(=O)(=O)O)c3ccc4ccccc4c3C2(C)C)=[N+](CCCCS(=O)(=O)[O-])c2ccc3ccccc3c21` [ICG, indocyanine green]: in data set [1], the “photoluminescence after continuous irradiation (photobleaching)” value is recorded as “significant fluorescence decay”. The “fluorescence after exposure to natural light (photostability)” value in data set [2] (after 1 day) is “lost all fluorescence”.
In the case of cyanine 5.5 [Cy5.5], the “photoluminescence after continuous irradiation (photobleaching)” value in data set [1] was “significant fluorescence decay”. Moreover, the “fluorescence lost (photostability)” value in data set [2] (after 1 week) is reported as 20%.
cyclo-dihistidine [cyclo-HH]: the “Lifetime (τ)” value in data set [3] (setting [7]) is reported as 4.89 ± 0.02 ns; in data set [3] (setting [8]), 6.48 ± 0.04 ns. In addition, in data set [4], the fluorescent emission stood at 430 nm. The “Emission (λEm)” value in data set [4] (setting [7]) is recorded as 425 nm; in data set [4] (setting [8]), 520 nm. Also, the “Excitation (λEx)” value in data set [4] (setting [7]) is 340 nm; in data set [4] (setting [8]), 420 nm. For the same compound, the Structures entry in data set [5] is given as “nanofibers”. In addition, the QY in data set [6] was found to be 3%.
In data set [4] (DMSO, Ex 450 nm (cyclo-FF), Ex 480 nm (cyclo-YY)), cyclo-dityrosine [cyclo-YY] came in with an emission of 570 nm. In data set [4], the “Emission (λEm)” value is “no detectable emissions”. The Structures result in data set [5] is on record as “platelets”.
On to “histidine-tyrosine cyclic dipeptide [cyclo-HY]”, for which the “Lifetime (τ)” value in data set [3] is reported as 0.003 ± 0.034 ns. Besides, in data set [4], the “Emission (λEm)” value is 390 nm and the “Excitation (λEx)” value amounted to 310 nm. Also, the Structures result in data set [5] is “nanofibers”.
Turning to “phenylalanine-histidine cyclic dipeptide [cyclo-HF]”, the “Lifetime (τ)” value in data set [3] was found to be 3.29 ± 0.03 ns. In data set [4], the “Emission (λEm)” value was determined as 410 nm and the “Excitation (λEx)” value was determined as 340 nm. For the same compound, the Structures result in data set [5] is “nanofibers”.
As to “phenylalanine-tyrosine cyclic dipeptide [cyclo-FY]”, in data set [3], the “Lifetime (τ)” value amounted to 0.022 ± 0.003 ns. For the same compound, in data set [4], the “Emission (λEm)” value amounted to 430 nm and the “Excitation (λEx)” value is reported as 350 nm. The Structures entry in data set [5] is recorded as “nanofibers”. Moreover, in data set [6], the QY is recorded as 3%.
“tryptophan-histidine cyclic dipeptide [cyclo-WH]”: in data set [4] (setting [9]), the “Emission (λEm)” value is reported as 380 (strong) nm and the “Excitation (λEx)” value is given as 320 nm. Also, in data set [4] (setting [10]), the “Emission (λEm)” value is listed as 465 (weak) nm and the “Excitation (λEx)” value turned out to be 370 nm. In addition, in data set [5], the Structures result is reported as “nanofibers”.
With “tryptophan-tryptophan cyclic dipeptide [cyclo-WW]”, the “Lifetime (τ)” value in data set [3] is 5.45 ± 0.03 ns. The fluorescence lifetime in data set [3] (excitation 370 nm) was 5.6 ns. Further, in data set [4], the fluorescent emission was 425 nm and 520 nm; the “Excitation (λEx)” value is given as 370 nm. Besides, the “Emission (λEm)” value in data set [4] (emission band 440 (strong), excitation 370 nm) was 440 (strong) nm. Further, the Structures entry in data set [5] is listed as “nanospheres”.
Consider “tyrosine-tryptophan cyclic dipeptide [cyclo-WY]”, for which the “Lifetime (τ)” value in data set [3] is on record as 0.232 ± 0.004 ns. Also, in data set [4], the “Emission (λEm)” value stood at 400 nm and the “Excitation (λEx)” value stood at 320 nm. Moreover, the Structures entry in data set [5] was “nanofibers”.
